Measured values as given in ChEMBL document CHEMBL1201862, “PubChem BioAssay data set” (2004).
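Protocol summary: plate cells (96-well), add compound at 5 concentrations, incubate 48 h, interpolate endpoints linearly. Here, GI50 denotes the concentration required for 50% inhibition of growth.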 Activity calls are given as the source filed them. Cut-off read from the data, not from the text of the source: active = GI50 up to about 1.1 µM and inactive = higher.

Key:
Test in all cases: growth of human tumour cells (NCI), 48 h
A498 = test system: A498
A549 = test system: A549
COLO 205 = test system: COLO 205
Malme-3M = test system: Malme-3M
NCI-H226 = test system: NCI-H226
NCI-H23 = test system: NCI-H23
NCI-H460 = test system: NCI-H460
NCI-H522 = test system: NCI-H522
OVCAR-4 = test system: OVCAR-4
OVCAR-5 = test system: OVCAR-5
SF-295 = test system: SF-295
SF-539 = test system: SF-539
UACC-257 = test system: UACC-257
KM12 = test system: KM12

Measured: GI50

Nc1nc(=O)n(C2CC(O)C(O)C(CO)O2)cc1F (stereo unspecified)
inactive: A498 > 100 µM | A549 > 100 µM | COLO 205 > 100 µM | Malme-3M > 100 µM | NCI-H226 > 100 µM | NCI-H23 > 100 µM | NCI-H460 > 100 µM | NCI-H522 > 100 µM | OVCAR-4 > 100 µM | OVCAR-5 > 100 µM | SF-295 > 100 µM | SF-539 > 100 µM | UACC-257 > 100 µM

N#Cc1ccccc1NC(=O)C(=O)C(C(=O)c1ccccc1-c1ccccc1)C1OC(=O)c2ccccc21 (stereo unspecified)
inactive: A498 25.4 µM | A549 > 100 µM | COLO 205 21.1 µM | KM12 18.1 µM | Malme-3M 10.4 µM | NCI-H226 2.58 µM | NCI-H23 11.8 µM | NCI-H460 18.2 µM | NCI-H522 7.73 µM | OVCAR-5 17.8 µM | SF-295 17.6 µM | SF-539 10.7 µM | UACC-257 15.2 µM

N#Cc1c(C(N)=O)ncn1Cc1ccccc1
inactive: A498 > 100 µM | A549 > 100 µM | COLO 205 > 100 µM | KM12 > 100 µM | Malme-3M > 100 µM | NCI-H226 > 100 µM | NCI-H23 > 100 µM | NCI-H460 > 100 µM | NCI-H522 > 100 µM | OVCAR-4 > 100 µM | OVCAR-5 > 100 µM | SF-295 > 100 µM | SF-539 > 100 µM | UACC-257 > 100 µM

C[n+]1c2ccccc2c(/C=N\NS(=O)(=O)c2ccc(Cl)cc2)c2ccccc21
inactive: A498 35.6 µM | A549 23 µM | KM12 44.2 µM | Malme-3M > 100 µM | NCI-H226 68.2 µM | NCI-H23 > 100 µM | NCI-H460 32.4 µM | NCI-H522 46.8 µM | OVCAR-4 > 100 µM | OVCAR-5 97.7 µM | SF-295 59.4 µM | SF-539 87.5 µM | UACC-257 > 100 µM

CCOC(=O)NC(=O)c1cn(CCCOC(=O)CCCCCCCCC(=O)OCCCn2cc(C(=O)NC(=O)OCC)c(=O)[nH]c2=O)c(=O)[nH]c1=O
inactive: A498 21.7 µM | A549 55.6 µM | COLO 205 18.2 µM | NCI-H23 > 10 µM | NCI-H460 39.4 µM | OVCAR-4 4.41 µM | SF-295 22.8 µM | SF-539 23.8 µM | UACC-257 16.9 µM

O=C(O)c1ccccc1C1c2ccc(Cl)cc2Oc2cc(Cl)ccc21
inactive: A549 > 100 µM | COLO 205 > 100 µM | KM12 > 100 µM | Malme-3M > 100 µM | NCI-H23 > 100 µM | NCI-H460 > 100 µM | NCI-H522 > 100 µM | OVCAR-4 > 100 µM | OVCAR-5 > 100 µM | SF-295 > 100 µM | SF-539 > 100 µM | UACC-257 > 100 µM

CCOP1(=O)C=C(C)C(=C(Cl)Cl)C(C)=C1 (stereo unspecified)
inactive: A498 19.2 µM | A549 8.28 µM | COLO 205 11.7 µM | KM12 1.71 µM | Malme-3M 17.1 µM | NCI-H226 2.39 µM | NCI-H23 15.8 µM | NCI-H460 17.5 µM | NCI-H522 3.58 µM | OVCAR-4 15.2 µM | SF-295 6.24 µM | SF-539 18.1 µM | UACC-257 3.54 µM

CC(C)CCCC(C)[C@H]1CCC2[C@@H]3CCC4Nc5c(cnn5-c5ccccc5)C[C@]4(C)C3CC[C@@]21C (stereo partly specified)
inactive: A498 89.5 µM | A549 52.2 µM | COLO 205 8.75 µM | KM12 29.6 µM | Malme-3M 28.7 µM | NCI-H226 17.9 µM | NCI-H23 26.1 µM | NCI-H460 14.1 µM | NCI-H522 43.1 µM | OVCAR-4 25.6 µM | OVCAR-5 50.1 µM | SF-295 2.84 µM | SF-539 12.9 µM | UACC-257 44.5 µM
